The target of assay [1] is Serine/threonine-protein kinase MARK1 (Homo sapiens) (UniProt Q9P0L2). Briefly: Inhibition of MARK1 Lys2 labeling site in human A-375 cells at 0.5 uM by KiNativ Profiling analysis relative to control. It counts as cell-based.
Assay [2] concerns the target Tyrosine-protein kinase Fer (Homo sapiens, UniProt P16591). As to the kind of experiment: Inhibition of FER (unknown origin) at 1 uM by Ambit Kinomescan binding assay relative to control; values are per cent of control.
The target in assay [3] is Serine/threonine-protein kinase PAK 5 (Homo sapiens) (UniProt Q9P286). As to the kind of experiment: Inhibition of PAK7 (unknown origin) at 1 uM by Ambit Kinomescan binding assay relative to control.
For assay [4], the target named is Cyclin-dependent kinase 5 (Homo sapiens) (UniProt Q00535). Briefly: Inhibition of CDK5 Lys1 labeling site in human A-375 cells at 0.05 uM by KiNativ Profiling analysis relative to control. The assay is classed as cell-based.
In assay [5] the target is STE20-like serine/threonine-protein kinase (Homo sapiens) (UniProt Q9H2G2). Briefly: Inhibition of SLK (unknown origin) at 10 uM by Ambit Kinomescan binding assay relative to control; values are per cent of control.
The target of assay [6] is Interferon-induced, double-stranded RNA-activated protein kinase (Homo sapiens) (UniProt P19525). Briefly: Inhibition of PRKR (unknown origin) at 10 uM by Ambit Kinomescan binding assay.
Assay [7] concerns the target Serine/threonine-protein kinase 26 (Homo sapiens) (UniProt Q9P289). As to the kind of experiment: Inhibition of MST4 Lys1 labeling site in human Huh-7 cells at 1 uM by KiNativ Profiling analysis relative to control. It counts as cell-based.
Assay [8] is described as follows: Inhibition of KHS1 Lys1 labeling site in human Huh-7 cells at 1 uM by KiNativ Profiling analysis relative to control. Particulars: condition cancer.
Assay [9] deals with T1, Serine/threonine-protein kinase D3 (Homo sapiens) (UniProt O94806).
T1 sequence (whole entry): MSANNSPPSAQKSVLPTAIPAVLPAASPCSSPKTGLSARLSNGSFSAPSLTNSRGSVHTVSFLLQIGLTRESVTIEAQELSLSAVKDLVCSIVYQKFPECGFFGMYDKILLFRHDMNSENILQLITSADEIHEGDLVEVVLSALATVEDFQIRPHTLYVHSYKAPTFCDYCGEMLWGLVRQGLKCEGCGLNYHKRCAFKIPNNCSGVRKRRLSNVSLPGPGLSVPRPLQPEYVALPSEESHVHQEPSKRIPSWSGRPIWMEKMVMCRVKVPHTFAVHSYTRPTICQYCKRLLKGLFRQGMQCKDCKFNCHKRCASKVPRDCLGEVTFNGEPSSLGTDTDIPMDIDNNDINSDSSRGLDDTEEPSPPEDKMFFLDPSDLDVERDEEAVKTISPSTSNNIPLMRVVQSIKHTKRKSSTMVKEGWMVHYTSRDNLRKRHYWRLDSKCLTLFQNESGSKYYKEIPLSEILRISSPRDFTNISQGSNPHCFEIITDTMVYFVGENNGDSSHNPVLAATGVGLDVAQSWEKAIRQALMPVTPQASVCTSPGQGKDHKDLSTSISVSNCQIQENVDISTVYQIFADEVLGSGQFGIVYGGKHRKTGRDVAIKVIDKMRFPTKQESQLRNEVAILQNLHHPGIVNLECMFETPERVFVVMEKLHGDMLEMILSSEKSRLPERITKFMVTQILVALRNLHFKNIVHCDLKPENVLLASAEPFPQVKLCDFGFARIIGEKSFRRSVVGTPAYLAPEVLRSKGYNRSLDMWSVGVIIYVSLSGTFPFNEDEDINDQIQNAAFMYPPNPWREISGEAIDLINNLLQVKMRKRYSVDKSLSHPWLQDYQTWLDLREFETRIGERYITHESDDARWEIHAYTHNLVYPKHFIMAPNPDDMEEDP
Briefly: Inhibition of PKD3 Lys2 labeling site in human Huh-7 cell lysate at 1 uM by KiNativ Profiling analysis relative to control. The assay is classed as subcellular.

The target of assay [10] is Serine/threonine-protein kinase B-raf (Homo sapiens, UniProt P15056). As to the kind of experiment: Inhibition of BRAF Lys2 labeling site in human Huh-7 cell lysate at 1 uM by KiNativ Profiling analysis relative to control. It counts as subcellular.
Assay [11] concerns the target Tyrosine-protein kinase CSK (Homo sapiens, UniProt P41240). As to the kind of experiment: Inhibition of CSK ACT labeling site harbouring VSDFGLTKEASSTQDTGK in human Huh-7 cell lysate at 1 uM by KiNativ Profiling analysis relative to control. The assay is classed as subcellular.

Usually inhibition stands for the relative decrease from the control value, in per cent. As a reminder, the residual activity is what remains of the control signal, in per cent. High values mean much activity left, low ones little activity left.

Molecules are shown by their SMILES. Active and inactive are the calls of the source. No cut-off for these calls is given here.

Serine/threonine-protein kinase PAK 5 (Homo sapiens), sequence (Q9P286 whole entry, looked up): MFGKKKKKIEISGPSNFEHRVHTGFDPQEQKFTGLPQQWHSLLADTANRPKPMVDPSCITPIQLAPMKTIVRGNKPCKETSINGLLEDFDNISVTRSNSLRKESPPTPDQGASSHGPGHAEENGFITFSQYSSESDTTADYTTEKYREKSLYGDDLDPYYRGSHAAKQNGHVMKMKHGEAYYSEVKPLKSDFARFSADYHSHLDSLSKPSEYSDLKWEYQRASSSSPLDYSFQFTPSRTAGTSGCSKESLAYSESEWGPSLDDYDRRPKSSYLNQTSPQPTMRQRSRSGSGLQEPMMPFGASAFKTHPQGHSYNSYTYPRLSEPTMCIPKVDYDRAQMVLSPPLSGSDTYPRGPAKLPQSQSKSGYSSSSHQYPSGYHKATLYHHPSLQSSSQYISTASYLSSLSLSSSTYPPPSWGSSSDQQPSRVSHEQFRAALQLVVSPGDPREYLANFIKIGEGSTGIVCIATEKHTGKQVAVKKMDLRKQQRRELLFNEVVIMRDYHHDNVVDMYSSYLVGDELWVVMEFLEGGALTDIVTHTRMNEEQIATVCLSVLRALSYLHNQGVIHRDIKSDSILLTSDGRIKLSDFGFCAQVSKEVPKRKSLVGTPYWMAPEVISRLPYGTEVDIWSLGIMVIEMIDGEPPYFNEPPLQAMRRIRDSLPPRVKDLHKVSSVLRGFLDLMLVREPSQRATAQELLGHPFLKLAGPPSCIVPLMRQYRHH
Cyclin-dependent kinase 5 (Homo sapiens), sequence (Q00535 whole entry, looked up): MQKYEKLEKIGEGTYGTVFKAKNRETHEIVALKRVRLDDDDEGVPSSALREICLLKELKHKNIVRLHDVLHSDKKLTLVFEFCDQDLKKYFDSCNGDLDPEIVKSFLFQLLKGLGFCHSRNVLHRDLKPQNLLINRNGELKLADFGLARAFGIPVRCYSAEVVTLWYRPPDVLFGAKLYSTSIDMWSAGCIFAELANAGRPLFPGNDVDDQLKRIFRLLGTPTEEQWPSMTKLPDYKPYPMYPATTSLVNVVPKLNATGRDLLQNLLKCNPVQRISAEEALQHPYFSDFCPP
Interferon-induced, double-stranded RNA-activated protein kinase (Homo sapiens), sequence (P19525 whole entry): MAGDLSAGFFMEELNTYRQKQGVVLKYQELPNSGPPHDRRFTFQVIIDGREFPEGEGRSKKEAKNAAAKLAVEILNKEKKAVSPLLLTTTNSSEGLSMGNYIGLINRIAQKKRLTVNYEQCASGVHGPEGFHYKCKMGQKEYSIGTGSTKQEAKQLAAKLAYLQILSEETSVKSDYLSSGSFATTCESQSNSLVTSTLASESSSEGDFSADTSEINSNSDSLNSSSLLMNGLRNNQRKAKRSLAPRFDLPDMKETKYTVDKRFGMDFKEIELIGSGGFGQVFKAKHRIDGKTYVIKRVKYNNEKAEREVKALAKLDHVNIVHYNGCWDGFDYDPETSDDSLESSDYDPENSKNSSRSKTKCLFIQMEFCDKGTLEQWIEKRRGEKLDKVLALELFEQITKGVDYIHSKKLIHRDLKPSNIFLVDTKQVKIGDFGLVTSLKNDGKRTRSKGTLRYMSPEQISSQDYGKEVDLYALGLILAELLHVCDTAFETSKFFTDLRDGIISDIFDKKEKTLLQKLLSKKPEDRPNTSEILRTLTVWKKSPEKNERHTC
STE20-like serine/threonine-protein kinase (Homo sapiens), sequence (Q9H2G2 whole entry, looked up): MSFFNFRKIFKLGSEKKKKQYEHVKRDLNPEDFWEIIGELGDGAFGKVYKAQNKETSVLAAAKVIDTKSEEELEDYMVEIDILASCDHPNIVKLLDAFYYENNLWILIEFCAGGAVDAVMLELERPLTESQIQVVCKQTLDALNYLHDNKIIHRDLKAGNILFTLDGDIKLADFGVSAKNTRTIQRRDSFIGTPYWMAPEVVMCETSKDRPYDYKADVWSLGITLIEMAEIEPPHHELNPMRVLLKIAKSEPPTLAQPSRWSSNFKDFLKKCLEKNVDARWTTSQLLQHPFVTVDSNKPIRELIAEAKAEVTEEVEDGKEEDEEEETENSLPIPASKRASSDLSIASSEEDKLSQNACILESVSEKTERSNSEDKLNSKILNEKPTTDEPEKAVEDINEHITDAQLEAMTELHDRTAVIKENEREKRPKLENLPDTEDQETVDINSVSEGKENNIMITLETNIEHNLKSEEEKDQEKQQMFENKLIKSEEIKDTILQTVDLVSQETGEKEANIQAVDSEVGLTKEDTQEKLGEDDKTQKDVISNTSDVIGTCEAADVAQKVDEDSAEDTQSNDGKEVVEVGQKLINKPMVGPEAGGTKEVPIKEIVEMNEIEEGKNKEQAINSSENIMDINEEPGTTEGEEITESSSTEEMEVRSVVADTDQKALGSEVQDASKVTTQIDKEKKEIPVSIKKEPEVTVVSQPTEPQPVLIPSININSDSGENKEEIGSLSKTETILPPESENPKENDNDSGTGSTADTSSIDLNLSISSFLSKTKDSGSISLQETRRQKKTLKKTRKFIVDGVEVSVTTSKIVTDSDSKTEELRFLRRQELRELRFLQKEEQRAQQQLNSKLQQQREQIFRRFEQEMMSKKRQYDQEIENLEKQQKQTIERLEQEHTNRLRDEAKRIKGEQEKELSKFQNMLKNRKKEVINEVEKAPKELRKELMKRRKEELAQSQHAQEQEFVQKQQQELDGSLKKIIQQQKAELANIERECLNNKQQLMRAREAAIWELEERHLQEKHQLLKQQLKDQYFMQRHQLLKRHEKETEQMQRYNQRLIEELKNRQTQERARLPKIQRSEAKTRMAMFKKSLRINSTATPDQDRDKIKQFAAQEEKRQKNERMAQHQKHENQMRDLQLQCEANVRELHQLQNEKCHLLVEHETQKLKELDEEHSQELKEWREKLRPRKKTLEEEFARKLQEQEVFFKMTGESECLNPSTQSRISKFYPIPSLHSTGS
Tyrosine-protein kinase Fer, sequence (P16591 whole entry, looked up): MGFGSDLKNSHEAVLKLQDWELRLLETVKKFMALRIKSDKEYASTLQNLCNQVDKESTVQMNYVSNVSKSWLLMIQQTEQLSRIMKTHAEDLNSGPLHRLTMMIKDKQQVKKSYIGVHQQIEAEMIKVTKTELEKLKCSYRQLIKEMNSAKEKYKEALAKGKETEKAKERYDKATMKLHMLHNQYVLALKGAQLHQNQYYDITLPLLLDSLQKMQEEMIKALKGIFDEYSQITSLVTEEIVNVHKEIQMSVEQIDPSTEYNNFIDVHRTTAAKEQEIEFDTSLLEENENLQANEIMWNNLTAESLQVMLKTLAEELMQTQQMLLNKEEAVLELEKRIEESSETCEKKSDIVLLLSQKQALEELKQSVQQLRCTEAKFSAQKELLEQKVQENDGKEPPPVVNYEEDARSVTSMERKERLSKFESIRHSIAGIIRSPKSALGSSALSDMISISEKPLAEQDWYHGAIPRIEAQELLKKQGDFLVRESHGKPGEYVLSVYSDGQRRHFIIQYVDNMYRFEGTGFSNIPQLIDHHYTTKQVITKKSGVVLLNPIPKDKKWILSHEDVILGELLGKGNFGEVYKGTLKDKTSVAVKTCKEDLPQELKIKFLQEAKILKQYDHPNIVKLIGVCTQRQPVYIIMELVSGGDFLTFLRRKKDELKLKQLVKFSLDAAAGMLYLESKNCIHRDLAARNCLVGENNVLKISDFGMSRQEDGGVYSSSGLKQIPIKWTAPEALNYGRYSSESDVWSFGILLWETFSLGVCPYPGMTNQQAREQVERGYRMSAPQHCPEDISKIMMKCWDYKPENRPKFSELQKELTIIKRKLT
Serine/threonine-protein kinase MARK1 (Homo sapiens), sequence (Q9P0L2 whole entry, looked up): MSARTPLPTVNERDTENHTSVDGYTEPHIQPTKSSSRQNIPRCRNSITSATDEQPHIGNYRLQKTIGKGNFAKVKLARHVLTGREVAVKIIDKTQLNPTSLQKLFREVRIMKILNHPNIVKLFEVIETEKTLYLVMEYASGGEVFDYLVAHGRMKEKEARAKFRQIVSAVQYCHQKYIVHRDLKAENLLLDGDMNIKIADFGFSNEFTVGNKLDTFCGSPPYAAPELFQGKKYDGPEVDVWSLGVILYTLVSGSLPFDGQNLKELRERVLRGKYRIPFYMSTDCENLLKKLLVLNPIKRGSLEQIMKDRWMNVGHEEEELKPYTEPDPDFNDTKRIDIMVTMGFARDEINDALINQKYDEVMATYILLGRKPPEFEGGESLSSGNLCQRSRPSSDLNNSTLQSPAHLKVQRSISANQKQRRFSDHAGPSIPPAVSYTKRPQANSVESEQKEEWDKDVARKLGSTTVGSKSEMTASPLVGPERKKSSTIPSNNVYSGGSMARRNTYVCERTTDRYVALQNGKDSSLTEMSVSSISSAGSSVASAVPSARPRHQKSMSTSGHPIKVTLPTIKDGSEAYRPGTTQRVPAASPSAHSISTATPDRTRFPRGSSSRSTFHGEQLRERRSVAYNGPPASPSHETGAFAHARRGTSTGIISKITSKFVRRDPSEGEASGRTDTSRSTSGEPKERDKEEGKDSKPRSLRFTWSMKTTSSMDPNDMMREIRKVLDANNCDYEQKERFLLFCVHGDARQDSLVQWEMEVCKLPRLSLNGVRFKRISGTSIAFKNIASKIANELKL
Serine/threonine-protein kinase 26 (Homo sapiens), sequence (Q9P289 2-416 limits assumed): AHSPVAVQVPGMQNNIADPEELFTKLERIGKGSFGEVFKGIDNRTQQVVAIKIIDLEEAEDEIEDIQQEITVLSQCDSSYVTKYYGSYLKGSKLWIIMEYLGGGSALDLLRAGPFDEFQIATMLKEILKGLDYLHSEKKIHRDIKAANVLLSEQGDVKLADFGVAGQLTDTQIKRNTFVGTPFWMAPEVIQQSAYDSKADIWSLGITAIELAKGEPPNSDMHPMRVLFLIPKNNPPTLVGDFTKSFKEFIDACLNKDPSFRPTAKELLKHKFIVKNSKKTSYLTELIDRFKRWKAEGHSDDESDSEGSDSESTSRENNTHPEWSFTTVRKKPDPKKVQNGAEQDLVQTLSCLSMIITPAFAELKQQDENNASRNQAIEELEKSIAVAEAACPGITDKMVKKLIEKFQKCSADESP

Turning to `CCN1CCN(Cc2ccc(NC(=O)c3ccc(C)c(/C=C/c4cnc5[nH]ccc5c4OC)c3)cc2C(F)(F)F)CC1`, the inhibition in assay [1] came out at 2.2%; in assay [3], 70%. The compound also returned a residual activity in assay [2] of 21%.

On to `CCN1CCN(Cc2ccc(NC(=O)c3ccc(C)c(Oc4ccnc5[nH]ccc45)c3)cc2C(F)(F)F)CC1`, for which the inhibition in assay [4] was determined as 16.5%. In assay [5], this compound showed a residual activity of 2%. The inhibition entry in [6] is “inactive”.

For the compound `CNc1cc(Oc2cc(C(=O)Nc3cc(N4CCN(C)CC4)cc(C(F)(F)F)c3)ccc2C)ncn1`, the inhibition was 41.9% in [7], 12.4% in assay [9], -1.4% in [10] and 7.9% in assay [11]. For the same compound, the inhibition at 1 µM in [8] was -10.3%.

For the origin of these results see ChEMBL document CHEMBL5696442, “Discovery of type II inhibitors of TGFβ-activated kinase 1 (TAK1) and mitogen-activated protein kinase kinase kinase kinase 2 (MAP4K2)” (J Med Chem, 2015).
